The source of these data is ChEMBL document CHEMBL1155525, “Substituted 2H-isoquinolin-1-one as potent Rho-Kinase inhibitors. Part 1: Hit-to-lead account” (Bioorg Med Chem Lett, 2010).

Values after ≈ are worked out from the molar mass of the structure shown. Where only a bound is given, the exact number is not on record here.

A short description of data set [1]: Solubility at pH 7.4. Type of data set: physicochemical. The following applies: buffer.
A short description of data set [2]: in vivo. The following applies: rat, plasma.
Data set [3] can be described thus: in vivo. The following applies: rat, iv, 1 mg/kg.
Data set [4] can be described thus: in vitro. The following applies: human, liver microsomes.
Data set [5] can be described thus: in vitro. The following applies: rat, liver microsomes. (In general: Liver microsomes are a subcellular fraction often used to study metabolism.)
The nature of data set [6]: Oral bioavailability in rat at 10 mg/kg. Type of data set: ADME, organism-based. The following applies: in vivo.
Data set [7] in a line: in vivo. The following applies: rat.

The molecule `O=C(Nc1cc2cc[nH]c(=O)c2cc1Cl)C(NC1CC1)c1ccccc1` (stereo not drawn) came in with a solubility in data set [1] of 16 µg/mL (≈ 43.5 µM). Also, the half-life in data set [2] was 162 min; in data set [4], 21 min; in data set [5], 7 min. The same molecule gave a clearance in data set [3] of 82 mL/min/kg. The same molecule gave a bioavailability in data set [6] of 64%. The exposure (AUC) in data set [7] is 1290 ng·h/mL.
Regarding `CN(C)C(C(=O)Nc1cc2cc[nH]c(=O)c2cc1Cl)c1ccccc1` (stereo not drawn), the solubility in data set [1] worked out at 6 µg/mL (≈ 16.9 µM). The bioavailability in data set [6] was 2%. In addition, in data set [7], the AUC came out at 30 ng·h/mL.
Molecule `C[C@@H](N)[C@H]1CC[C@H](C(=O)Nc2ccncc2)CC1.Cl.Cl` showed a solubility in data set [1] of over 32 µg/mL. In data set [4], the half-life was over 90 min.
For `O=S(=O)(c1cccc2cnccc12)N1CCCNCC1` [FASUDIL], the solubility in data set [1] is over 60 µg/mL.

A word on the solubility: it is the dissolved amount per volume that the medium holds. A lower solubility goes with little dissolved substance. The term half-life denotes the time in which the quantity being followed falls by half. A low value points to fast loss. By clearance is commonly meant the volume of plasma or blood freed of the substance per unit of time. Broadly, the bioavailability is the share of a dose that reaches the circulation, judged against a reference dose that is usually intravenous. Lower therefore signals poor availability. For orientation: AUC means concentration integrated over time. A higher AUC goes with high exposure.
